How the values were obtained:
[1] = molecular target: T1, Enkephalinase (Rattus norvegicus, UniProt P07861); assay: Enkephalinase inhibition, fluorometric assay with dansyl-D-AlaGly(p-nitro)PheGly; type: biochemical; conditions: substrate of enkephalinase, 50 mM HEPES pH 7.4, 25° C.
T1 construct: Enkephalinase is partially purified from rat kidney; from tissue; host or cells: rat kidney (microvilli fraction), further purified by Mono Q anion exchange
T1 sequence (P07861 1-750): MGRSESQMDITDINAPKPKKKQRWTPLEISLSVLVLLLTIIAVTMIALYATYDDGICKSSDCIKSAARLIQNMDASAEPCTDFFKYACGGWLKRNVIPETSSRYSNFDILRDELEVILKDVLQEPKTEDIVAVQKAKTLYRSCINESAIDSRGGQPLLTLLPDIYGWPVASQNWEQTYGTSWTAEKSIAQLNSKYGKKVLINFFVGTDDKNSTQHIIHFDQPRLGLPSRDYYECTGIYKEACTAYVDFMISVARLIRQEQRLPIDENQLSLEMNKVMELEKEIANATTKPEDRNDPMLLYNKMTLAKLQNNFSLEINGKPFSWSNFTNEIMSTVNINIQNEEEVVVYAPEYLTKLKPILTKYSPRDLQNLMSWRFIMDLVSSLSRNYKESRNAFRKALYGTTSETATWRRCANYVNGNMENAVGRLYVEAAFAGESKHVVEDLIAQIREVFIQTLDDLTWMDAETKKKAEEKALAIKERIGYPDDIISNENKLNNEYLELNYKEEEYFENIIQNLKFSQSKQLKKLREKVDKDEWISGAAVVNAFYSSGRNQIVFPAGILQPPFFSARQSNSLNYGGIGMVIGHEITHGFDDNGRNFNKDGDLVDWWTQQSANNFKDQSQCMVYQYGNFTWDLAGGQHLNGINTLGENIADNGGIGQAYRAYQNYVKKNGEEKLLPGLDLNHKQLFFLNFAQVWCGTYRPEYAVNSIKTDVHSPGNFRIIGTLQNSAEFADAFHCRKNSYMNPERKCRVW
Text: Enkephalinase is partially purified from rat kidney. The enzyme is extracted from the microvilli fraction by using Triton X-100 according to the method of Malfroy and Schwartz [Biol. Chem. 259, 14365-14370 (1984)] or by using a proteolytic treatment according to the method of Almenoff and Orlowski [Biochem. 22, 590-599 (1983)]. The enzyme is further purified by anion exchange chromatography (Mono Q™ column, Pharmacia) using a Pharmacia FPLC system. The enzyme activity may be measured by the fluorometric methods of Florentin et al. [
Anal. Biochem. 141, 62-69 (1984)] or of Almenoff and Orlowski [Neurochemistry 42, 151-157 (1984)]. The enzyme is assayed in 50 mM HEPES buffer (pH 7.4) in a 3.0 mL reaction volume containing 12 μM of the substrate dansyl-D-AlaGly(p-nitro)PheGly (Km =40μM) at 25° C. The substrate (and inhibitor) is added from a concentrated stock solution in DMSO (up to 0.1 mL DMSO final volume). The enzyme in a small volume (approximately 0.1 μg of FPLC purified protein) is added to initiate the reaction and the rate of fluorecense increase is recorded continuously using a fluorometer (excitation at 339 nm, emission at 562 nm).

[2] = Needleman, Hypertension 7, 469 (1985), cited from earlier work

| Substance | Km [1] [µM] | binding affinity, lower end of range ([2]; affinities ranging from about) [pM] | binding affinity, upper end of range ([2]; affinities ranging to about) [nM] |
| --- | --- | --- | --- |
| dansyl-D-AlaGly(p-nitro)PheGly | 40 | – | – |
| ANP: family of naturally-occurring peptides which are involved in the homeostatic regulation of blood pressure, as well as sodium and water levels | – | ≥ 50 | ≤ 500 |
